The text below walks through data of article PMC6156755, “Using Human Plasma as an Assay Medium in Caco-2 Studies Improves Mass Balance for Lipophilic Compounds” (Pharmaceutical Research, 2018).

A short description of data set [1]: Human plasma protein binding (ultracentrifugation or rapid equilibrium dialysis). Type of data set: in vitro ADME. The settings on record: for fraction unbound: pH 7.4, neat human plasma, 37°C, concentration comparable to Caco-2 assay, read-out: fu (fraction unbound in plasma). As to the method:
Binding was assessed using one of two methods: ultracentrifugation ([31]) using neat human plasma or rapid equilibrium dialysis (RED) using either neat or diluted plasma. […] To allow analysis with a single calibration curve, the total plasma and protein-free supernatant samples were ‘matrix-matched’ by taking aliquots of protein-free supernatant samples and adding to fresh tubes containing an equal volume of blank plasma, or taking aliquots of the total plasma samples and adding to fresh tubes containing an equal volume of Dulbecco’s phosphate-buffered saline (DPBS). In this way, the final composition of both the protein-free supernatant samples and the total plasma samples were ‘matched’ prior to the analysis against a common calibration curve prepared in a 1:1 mixture of human plasma and DPBS. All samples were then stored frozen at −80°C until analysis.
The holding plate was then placed on a plate shaker (set at 800 rpm; ThermoMixer C, Eppendorf) and maintained at 37°C under a 2% CO2 atmosphere. The dialysis was conducted for 6 h, assuming steady state was achieved by the end of this period ([32]). Samples were then removed from both the donor and dialysate chambers of each RED insert. […] Samples were matrix matched as described above (but using PBS buffer instead of DPBS) and stored at −80°C until analysis.
For the more lipophilic compounds with potential for very high binding, the RED method was used with diluted plasma to increase the chance of detecting concentrations in the dialysate samples. Diluted human plasma (10% v/v in pH 7.4 phosphate buffered saline) was spiked with each compound (at 10% of the concentration used for the Caco-2 experiment with neat plasma) and binding conducted as described above. The binding in neat plasma was then calculated by correcting for the dilution as described below.
For binding measurements in neat plasma by ultracentrifugation, the fraction unbound (fu) was calculated from the ratio of the average unbound concentration in protein free supernate (Cunbound) to the average total concentration in non-centrifuged plasma (Ctotal). The standard deviation (SD) for the fu value was calculated using the propagation of errors approach as described previously ([33]). For binding measurements using the RED method in neat plasma, fu was calculated from the ratio of the dialysate to total plasma concentration for each dialysis unit and the mean and SD calculated for replicate units (n = 3).
For RED binding assessments using 10% plasma, the fu − diluted for individual dialysis units was calculated in the same way as described above.
(In equilibrium dialysis only unbound substance equilibrates across the membrane.)

The next data set can be described thus: in vitro. The settings on record: human; for Papp A→B: Caco-2, pH 7.4, Papp A-B.
For data set [2] the following is noted: cited from earlier work.
A short description of data set [3]: Caco-2 permeability assay with pH 7.4 buffer or human plasma in both chambers. The settings on record: human; for Papp B→A: Caco-2, pH 7.4, Papp B-A; for efflux ratio: Caco-2, pH 7.4, Efflux ratio (B-A/A-B). Background: Caco-2 cells form a polarised layer with tight junctions and transporters.
The test system of data set [4] is Caco-2 cell monolayer. The data set is described as above. The settings on record: for Mass balance: both directions (where assessed) and both media.
A further data set has as its system P-gp. Described as above. The settings on record: human, Caco-2, pH 7.4, with verapamil 100 µM, Papp B-A, + 100 μM verapamil.
The test system of data set [5] is Caco-2 cell monolayer.
Setting [6] is: human, values from the literature.
[7] abbreviates: Caco-2, pH 7.4, Papp A-B, buffer pH 7.4 in both chambers.
The mark [8] stands for this setting: Caco-2, pH 7.4, Papp A-B, human plasma in both chambers, corrected for fu in donor.
Where [9] appears, read: buffer (HBSS/HEPES pH 7.4) in both chambers.

Where two headings read alike, the source gives them in different places.

Broadly, the fraction unbound is the share of the substance not bound to proteins or other matrix. The term Papp A→B denotes how fast a substance crosses the layer from the apical side. For the compound `CN/C(=N/CCSCc1nc[nH]c1C)NC#N` [Cimetidine, cimetidine], the fraction unbound in data set [1] amounted to 0.76. Also, the apparent permeability from apical to basolateral (Papp A→B) in “in vitro” was 1.9 ± 0.26 ×10⁻⁶ cm/s; in data set [3] (setting [7]), 1.7 ± 0.45 ×10⁻⁶ cm/s. Further, the “Human FA (fraction absorbed)” value in data set [2] (setting [6]) is 64%. The compound further gave a Mass balance in the data set on Caco-2 cell monolayer [4] greater than 80%.

Take `CNC(=C[N+](=O)[O-])NCCSCc1ccc(CN(C)C)o1` [Ranitidine, ranitidine]: in data set [1], the free fraction (fraction unbound) came to 0.92. Also, the “Human FA (fraction absorbed)” value in data set [2] (setting [6]) was 50%. The apparent permeability from apical to basolateral (Papp A→B) in data set [3] (setting [7]) amounted to 0.99 ± 0.11 ×10⁻⁶ cm/s; in data set [3] (setting [8]), 2.1 ± 0.058 ×10⁻⁶ cm/s. In addition, the Mass balance in the data set with Caco-2 cell monolayer [4] is greater than 80%. Also, the “Mass balance A-B” value stood at 97 ± 11% in the data set on Caco-2 cell monolayer [4] (setting [9]) and 92 ± 7.2% in the data set with Caco-2 cell monolayer [4] (human plasma in both chambers).

One may read the Papp B→A as how fast a substance crosses the layer from the basolateral side. Consider `C[C@H]1O[C@@H](O[C@H]2[C@@H](O)C[C@H](O[C@H]3[C@@H](O)C[C@H](O[C@H]4CC[C@@]5(C)[C@H](CC[C@@H]6[C@@H]5C[C@@H](O)[C@]5(C)[C@@H](C7=CC(=O)OC7)CC[C@]65O)C4)O[C@@H]3C)O[C@@H]2C)C[C@H](O)[C@@H]1O` [^3H-Digoxin, [^3H(G)]-digoxin], for which the fraction unbound in data set [1] stood at 0.61. The Papp A→B amounted to 4.7 ± 0.15 ×10⁻⁶ cm/s in the data set “in vitro”; 2.7 ± 0.21 ×10⁻⁶ cm/s in data set [3] (setting [7]); 4.6 ± 0.46 ×10⁻⁶ cm/s in data set [3] (Caco-2, pH 7.4, with verapamil 100 µM, Papp A-B, buffer, + 100 μM verapamil); 6.2 ± 1 ×10⁻⁶ cm/s in data set [3] (Caco-2, pH 7.4, with verapamil 100 µM, Papp A-B, plasma, + 100 μM verapamil, corrected for fu). Besides, the Papp B→A in the data set “in vitro” (Caco-2, pH 7.4, Papp B-A) worked out at 26 ± 1.5 ×10⁻⁶ cm/s; in data set [3] (buffer pH 7.4 in both chambers), 18 ± 0.58 ×10⁻⁶ cm/s; in the data set on P-gp (buffer), 5.8 ± 0.53 ×10⁻⁶ cm/s; in the data set on P-gp (plasma, corrected for fu), 7.4 ± 0.49 ×10⁻⁶ cm/s. For the same compound, the “Mass balance B-A” value is listed as 100 ± 0% in the data set on Caco-2 cell monolayer [4] (buffer pH 7.4 in both chambers); 100 ± 0.58% with Caco-2 cell monolayer [4] (buffer, + 100 μM verapamil); 100 ± 5.8% with Caco-2 cell monolayer [4] (human plasma in both chambers); 99 ± 0.58% in the data set with Caco-2 cell monolayer [4] (plasma, + 100 μM verapamil). In addition, the “Mass balance A-B” value stood at 99 ± 0.58% in the data set on Caco-2 cell monolayer [4] (buffer, + 100 μM verapamil (P-gp inhibitor)) and 96 ± 2.1% with Caco-2 cell monolayer [4] (plasma, + 100 μM verapamil).

In general, efflux ratio refers to the permeability from basolateral to apical divided by that in the opposite direction, in the common usage. With `OC[C@@H](O)[C@@H](O)[C@H](O)[C@H](O)CO` [^14C-Mannitol, D-[1-^14C]-mannitol], the fraction unbound in data set [1] was 0.83. In addition, the “Human FA (fraction absorbed)” value in data set [2] (setting [6]) is 26%. Further, the efflux ratio is 1.9 ± 0.35 in data set [3] (buffer pH 7.4 in both chambers) and 1.4 ± 0.37 in data set [3] (human plasma in both chambers). In addition, the Papp A→B in data set [3] (setting [7]) came out at 0.29 ± 0.051 ×10⁻⁶ cm/s; in data set [3] (setting [8]), 0.31 ± 0.081 ×10⁻⁶ cm/s. The Papp B→A amounted to 0.56 ± 0.026 ×10⁻⁶ cm/s in data set [3] (buffer pH 7.4 in both chambers) and 0.43 ± 0.021 ×10⁻⁶ cm/s in data set [3] (human plasma in both chambers, corrected for fu in donor). In the data set on Caco-2 cell monolayer [4], this compound displayed a Mass balance greater than 80%. In addition, the “Mass balance A-B” value with Caco-2 cell monolayer [4] (setting [9]) came to 99 ± 2.3%; in the data set on Caco-2 cell monolayer [4] (human plasma in both chambers) it was 96 ± 4.0%. In addition, the “Mass balance B-A” value in the data set with Caco-2 cell monolayer [4] (buffer pH 7.4 in both chambers) was 99 ± 1.7%; in the data set on Caco-2 cell monolayer [4] (human plasma in both chambers), 97 ± 5.2%.

As for lucifer yellow, the “fu (fraction unbound in plasma)” value in data set [1] (human, plasma) stood at 0.51. Moreover, in the data set with Caco-2 cell monolayer [5] (Caco-2), the Mass balance is greater than 80%, the “Mass balance A-B” value worked out at 98 ± 4.7% and the “Papp A-B” value is recorded as 0.17 ± 0.069 10^−6 cm/s. Also, in the data set on Caco-2 cell monolayer [5] (Caco-2, pH 7.4), the “Mass balance A-B” value is given as 86 ± 6.7% and the “Papp A-B” value is recorded as 0.21 ± 0.085 10^−6 cm/s. Further, the “Human FA (fraction absorbed)” value in data set [2] (in vivo) is listed as 0%.
